From US12692254B2, “Benzimidazole inhibitors of PAD enzymes” (BRISTOL-MYERS SQUIBB COMPANY, priority 2018, dated 2026)
pIC50: −log10 of the molar value.

The compounds below were run against human PAD4 (hPAD4) (Homo sapiens, UniProt Q9UM07) (assay: RFMS human PAD4 functional assay (rapid-fire mass spectrum)). Conditions: 5 nM hPAD4 enzyme, 250 μM BAEE, 50 μM Calcium; 30 min preincubation, 90 min reaction at 37° C.
Format: biochemical
Procedure, shortened: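 PAD4 (10 nM) preincubated 30 min with compound (top final 50 μM), then BAEE substrate added in pH 7.5 HEPES buffer with DTT, 50 μM calcium, TPEN; 90 min at 37° C. After TCA quench, citrulline derivatized with phenyl glyoxal (4 mM final, 30 min, 37° C) and quantified by RapidFire MS against internal standard.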

human PAD4 (hPAD4), sequence (Q9UM07 whole entry): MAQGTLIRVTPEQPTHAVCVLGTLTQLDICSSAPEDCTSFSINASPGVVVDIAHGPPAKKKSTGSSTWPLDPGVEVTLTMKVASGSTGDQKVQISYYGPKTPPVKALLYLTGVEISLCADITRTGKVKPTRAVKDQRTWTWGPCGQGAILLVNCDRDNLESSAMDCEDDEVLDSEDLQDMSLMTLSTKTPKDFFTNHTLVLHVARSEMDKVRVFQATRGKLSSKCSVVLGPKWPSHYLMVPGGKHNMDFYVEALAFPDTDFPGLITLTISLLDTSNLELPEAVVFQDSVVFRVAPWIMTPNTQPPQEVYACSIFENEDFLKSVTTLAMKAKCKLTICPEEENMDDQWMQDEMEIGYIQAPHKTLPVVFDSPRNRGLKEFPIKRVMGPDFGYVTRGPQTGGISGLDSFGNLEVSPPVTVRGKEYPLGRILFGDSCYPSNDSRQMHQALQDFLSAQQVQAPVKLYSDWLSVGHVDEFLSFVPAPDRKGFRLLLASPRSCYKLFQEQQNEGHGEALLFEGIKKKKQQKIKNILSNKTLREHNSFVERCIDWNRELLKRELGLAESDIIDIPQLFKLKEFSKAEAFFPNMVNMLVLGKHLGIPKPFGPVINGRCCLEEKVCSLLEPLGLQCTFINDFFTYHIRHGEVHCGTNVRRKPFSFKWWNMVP

Structure (SMILES)	pIC50
COc1cc(C(=O)N2C[C@H]3CC[C@@H]2[C@@H]3N)cc2nc(-c3cc4cccnc4n3CC3CC3)n(CC3CN(C(=O)c4ccccc4)C3)c12 [Example 88, (1R,4R,7R)-2-{1-[(1-benzoylazetidin-3-yl)methyl]-2-[1-(cyclopropylmethyl)-1H-pyrrolo[2,3-b]pyridin-2-yl]-7-methoxy-1H-1,3-benzodiazole-5-carbonyl}-2-azabicyclo[2.2.1]heptan-7-amine]	7.68
COc1cc(C(=O)N2C[C@H]3CC[C@@H]2[C@@H]3N)cc2nc(-c3cc4cccnc4n3CC3CC3)n(CC3CCN(c4ccncn4)CC3)c12 [Example 217, (1R,4R,7R)-2-{2-[1-(cyclopropylmethyl)-1H-pyrrolo[2,3-b]pyridin-2-yl]-7-methoxy-1-{[1-(pyrimidin-4-yl)piperidin-4-yl]methyl}-1H-1,3-benzodiazole-5-carbonyl}-2-azabicyclo[2.2.1]heptan-7-amine]	7.25
COc1cc(C(=O)N2C[C@H]3CC[C@@H]2[C@@H]3N)cc2nc(-c3cc4cccnc4n3CC3CC3)n(C3CN(S(=O)(=O)CC4CC4)C3)c12 [Example 331, (1R,4R,7R)-2-[1-(1-cyclopropylmethanesulfonylazetidin-3-yl)-2-[1-(cyclopropylmethyl)-1H-pyrrolo[2,3-b]pyridin-2-yl]-7-methoxy-1H-1,3-benzodiazole-5-carbonyl]-2-azabicyclo[2.2.1]heptan-7-amine]	6.72
COc1cc(C(=O)N2CC3CCC2[C@@H]3N)cc2nc(-c3cc4ccccc4n3CC3CC3)n(CC3CN(C(=O)[C@H]4C[C@@H]4C)C3)c12 (stereo partly drawn) [Example 172, (1R,4R,7R)-2-{2-[1-(cyclopropylmethyl)-1H-indol-2-yl]-7-methoxy-1-({1-[(1S,2S)-2-methylcyclopropanecarbonyl]aze-tidin-3-yl}methyl)-1H-1,3-benzodiazole-5-carbonyl}-2-azabicyclo[2.2.1]heptan-7-amine]	7.38
COc1cc(C(=O)N2C[C@H](N)C[C@@H](F)C2)cc2nc(-c3cc4ccccc4n3CC3CC3)n(Cc3cn[nH]c3)c12 [Example 266, (3R,5R)-1-{2-[1-(cyclopropylmethyl)-1H-indol-2-yl]-7-methoxy-1-[(1H-pyrazol-4-yl)methyl]-1H-1,3-benzodiazole-5-carbonyl}-5-fluoropiperidin-3-amine]	7.09
COc1cc(C(=O)N2C[C@H]3CC[C@@H]2[C@@H]3N)cc2nc(-c3cc4cccnc4n3CC3CC3)n(CC3CN(c4cccc(C#N)n4)C3)c12 [Example 21, 6-[3-({5-[(1R,4R,7R)-7-amino-2-azabicyclo[2.2.1]heptane-2-carbonyl]-2-[1-(cyclopropylmethyl)-1H-pyrrolo[2,3-b]pyridin-2-yl]-7-methoxy-1H-1,3-benzodiazol-1-yl}methyl)azetidin-1-yl]pyridine-2-carbonitrile]	7.24
COc1cc(C(=O)N2C[C@H]3CC[C@@H]2[C@@H]3N)cc2nc(-c3cc4cccnc4n3CC3CC3)n(CC3CN(S(=O)(=O)c4ccc(Cl)nc4)C3)c12 [Example 334, (1R,4R,7R)-2-[1-({1-[(6-chloropyridin-3-yl)sulfonyl]azetidin-3-yl}methyl)-2-[1-(cyclopropylmethyl)-1H-pyrrolo[2,3-b]pyridin-2-yl]-7-methoxy-1H-1,3-benzodiazole-5-carbonyl]-2-azabicyclo[2.2.1]heptan-7-amine]	6.65
COc1cc(C(=O)N2C[C@H]3CC[C@@H]2[C@@H]3N)cc2nc(-c3cc4cccnc4n3CC3CC3)n(C[C@H]3CCN(c4nccnc4C#N)C3)c12 [Example 202, 3-[(3S)-3-({5-[(1R,4R,7R)-7-amino-2-azabicyclo[2.2.1]heptane-2-carbonyl]-2-[1-(cyclopropylmethyl)-1H-pyrrolo[2,3-b]pyridin-2-yl]-7-methoxy-1H-1,3-benzodiazol-1-yl}methyl)pyrrolidin-1-yl]pyrazine-2-carbonitrile]	7.68
COc1cc(C(=O)N2C[C@H](N)C[C@@H](F)C2)cc2nc(-c3cc4ccccc4n3CC3CC3)n(Cc3cccs3)c12 [Example 255, (3R,5R)-1-{2-[1-(cyclopropylmethyl)-1H-indol-2-yl]-7-methoxy-1-[(thiophen-2-yl)methyl]-1H-1,3-benzodiazole-5-carbonyl}-5-fluoropiperidin-3-amine]	7.43
COc1cc(C(=O)N2C[C@H]3CC[C@@H]2[C@@H]3N)cc2nc(-c3cc4cc(Cl)ccc4n3C)n(CC3CN(c4ccnc(C)n4)C3)c12 [Example 61, (1R,4R,7R)-2-[2-(5-chloro-1-methyl-1H-indol-2-yl)-7-methoxy-1-{[1-(2-methylpyrimidin-4-yl)azetidin-3-yl]methyl}-1H-1,3-benzodiazole-5-carbonyl]-2-azabicyclo[2.2.1]heptan-7-amine]	6.73
COc1cc(C(=O)N2C[C@H]3CC[C@@H]2[C@@H]3N)cc2nc(-c3cc4cccnc4n3CC3CC3)n(CC3CN(C(=O)c4ccnc(F)c4)C3)c12 [Example 122, (1R,4R,7R)-2-{2-[1-(cyclopropylmethyl)-1H-pyrrolo[2,3-b]pyridin-2-yl]-1-{[1-(2-fluoropyridine-4-carbonyl)azetidin-3-yl]methyl}-7-methoxy-1H-1,3-benzodiazole-5-carbonyl}-2-azabicyclo[2.2.1]heptan-7-amine]	7.01
COc1cc(C(=O)N2CC3CCC2[C@@H]3N)cc2nc(-c3cc4cccnc4n3CC3CC3)n(C3CN(S(=O)(=O)C4CC4)C3)c12 (stereo partly shown) [Example 328]	6.90

The next lines start with the values.

pIC50	Structure (SMILES)
6.83	COc1cc(C(=O)N2CC3CCC2[C@@H]3N)cc2nc(-c3cc4ccccc4n3CC3CC3)n(Cc3cn(C)nn3)c12 (stereo partly drawn) [Example 503, (7R)-2-{2-[1-(cyclopropylmethyl)-1H-indol-2-yl]-7-methoxy-1-[(1-methyl-1H-1,2,3-triazol-4-yl)methyl]-1H-1,3-benzodiazole-5-carbonyl}-2-azabicyclo[2.2.1]heptan-7-amine]
7.07	COc1cc(C(=O)N2CC3CCC2[C@@H]3N)cc2nc(-c3cc4ccc(C(C)O)cc4n3CC3CC3)n(CC3CN(C(=O)c4ccccc4)C3)c12 (stereo partly drawn) [Example 521, l-(2-{5-[(7R)-7-amino-2-azabicyclo[2.2.1]heptane-2-carbonyl]-1-[(1-benzoylazetidin-3-yl)methyl]-7-methoxy-1H-1,3-benzodiazol-2-yl}-1-(cyclopropylmethyl)-1H-indol-6-yl)ethan-1-ol]
6.79	COc1ccc2cc(-c3nc4cc(C(=O)N5C[C@H]6CC[C@@H]5[C@@H]6N)cc(OC)c4n3CC3CN(c4cccc(C#N)n4)C3)n(CC3CC3)c2n1 [Example 54, 6-[3-({5-[(1R,4R,7R)-7-amino-2-azabicyclo[2.2.1]heptane-2-carbonyl]-2-[1-(cyclopropylmethyl)-6-methoxy-1H-pyrrolo[2,3-b]pyridin-2-yl]-7-methoxy-1H-1,3-benzodiazol-1-yl}methyl)azetidin-1-yl]pyridine-2-carbonitrile]
7.60	COc1cc(C(=O)N2C[C@H](N)C[C@@H](F)C2)cc2nc(-c3cc4cccnc4n3CC3CC3)n(Cc3cnn(-c4cccc(C)n4)c3)c12 [Example 363, (3R,5R)-1-{2-[1-(cyclopropylmethyl)-1H-pyrrolo[2,3-b]pyridin-2-yl]-7-methoxy-1-{[1-(6-methylpyridin-2-yl)-1H-pyrazol-4-yl]methyl}-1H-1,3-benzodiazole-5-carbonyl}-5-fluoropiperidin-3-amine]
7.26	COC(=O)Cn1cc(Cn2c(-c3cc4cccnc4n3CC3CC3)nc3cc(C(=O)N4CC5CCC4[C@@H]5N)cc(OC)c32)cn1 (stereo partly drawn) [Example 411, methyl 2-[4-({5-[(7R)-7-amino-2-azabicyclo[2.2.1]heptane-2-carbonyl]-2-[1-(cyclopropylmethyl)-1H-pyrrolo[2,3-b]pyridin-2-yl]-7-methoxy-1H-1,3-benzodiazol-1-yl}methyl)-1H-pyrazol-1-yl]acetate]
7.43	COc1cccc(-n2cc(Cn3c(-c4cc5ccccc5n4CC4CC4)nc4cc(C(=O)N5CC6CCC5[C@@H]6N)cc(OC)c43)cn2)n1 (stereo partly drawn) [Example 378, (7R)-2-{2-[1-(cyclopropylmethyl)-1H-indol-2-yl]-7-methoxy-1-{[1-(6-methoxypyridin-2-yl)-1H-pyrazol-4-yl]methyl}-1H-1,3-benzodiazole-5-carbonyl}-2-azabicyclo[2.2.1]heptan-7-amine]
7.66	COc1cc(C(=O)N2C[C@H]3CC[C@@H]2[C@@H]3N)cc2nc(-c3cc4ccccc4n3CC3CC3)n(CC3CN(C(=O)c4cnn(C)c4)C3)c12 [Example 155, (1R,4R,7R)-2-{2-[1-(cyclopropylmethyl)-1H-indol-2-yl]-7-methoxy-1-{[1-(1-methyl-1H-pyrazole-4-carbonyl)azetidin-3-yl]methyl}-1H-1,3-benzodiazole-5-carbonyl}-2-azabicyclo[2.2.1]heptan-7-amine]
7.68	COc1cc(C(=O)N2C[C@H]3CC[C@@H]2[C@@H]3N)cc2nc(-c3cc4ccccc4n3CC3CC3)n(CC3CN(C(=O)c4cccc(Cl)c4)C3)c12 [Example 154, (1R,4R,7R)-2-(1-{[1-(3-chlorobenzoyl)azetidin-3-yl]methyl}-2-[1-(cyclopropylmethyl)-1H-indol-2-yl]-7-methoxy-1H-1,3-benzodiazole-5-carbonyl)-2-azabicyclo[2.2.1]heptan-7-amine]
7.19	COc1cc(C(=O)N2C[C@H]3CC[C@@H]2[C@@H]3N)cc2nc(-c3cc4ccccc4n3CC3CC3)n(Cc3ccnn3C)c12 [Example 265, (1R,4R,7R)-2-{2-[1-(cyclopropylmethyl)-1H-indol-2-yl]-7-methoxy-1-[(1-methyl-1H-pyrazol-5-yl)methyl]-1H-1,3-benzodiazole-5-carbonyl}-2-azabicyclo[2.2.1]heptan-7-amine]
7.24	COc1cc(C(=O)N2CC3CCC2[C@@H]3N)cc2nc(-c3cc4cccnc4n3CC3CC3)n(Cc3cnn(-c4ccccn4)c3)c12 (stereo partly drawn) [Example 400, (7R)-2-{2-[1-(cyclopropylmethyl)-1H-pyrrolo[2,3-b]pyridin-2-yl]-7-methoxy-1-{[1-(pyridin-2-yl)-1H-pyrazol-4-yl]methyl}-1H-1,3-benzodiazole-5-carbonyl)-2-azabicyclo[2.2.1]heptan-7-amine]
